Test results published in patent US9675592B2, “Methods and compositions for bacteria infections” (priority 2013, dated 2017).
Converted amounts (≈) assume the structure as drawn.

Columns and labels:
[1] = target: PurC (unrelated protein, control) (Bacillus anthracis, UniProt Q81ZH5); type: binding; details: read-out: KD PurC (control)
[2] = target: VraR (Staphylococcus aureus, UniProt Q7A4R9); experiment: biochemical; type: binding; details: for RUmax VraR / Kd: His-tagged VraR; for Kd: NB = No Binding
VraR, sequence (Q7A4R9 whole entry, the tested form may be a part): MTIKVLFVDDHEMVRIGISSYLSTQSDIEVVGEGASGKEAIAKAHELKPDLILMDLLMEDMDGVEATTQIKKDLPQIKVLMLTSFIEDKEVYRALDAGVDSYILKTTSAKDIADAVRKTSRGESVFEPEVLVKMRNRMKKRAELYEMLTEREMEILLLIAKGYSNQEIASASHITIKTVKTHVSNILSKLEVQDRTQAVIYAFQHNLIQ

[3] = target: cytoplasmic domain of VraS (VraS-C) (Staphylococcus aureus, UniProt Q99SZ7); experiment: biochemical; type: binding; details: for Kd / RUmax VraS: new run with His-tagged VraS; for Kd: NB = No Binding, read-out: KD VraS; for binding to VraS-C: SPR
cytoplasmic domain of VraS (VraS-C), sequence (Q99SZ7 70-347): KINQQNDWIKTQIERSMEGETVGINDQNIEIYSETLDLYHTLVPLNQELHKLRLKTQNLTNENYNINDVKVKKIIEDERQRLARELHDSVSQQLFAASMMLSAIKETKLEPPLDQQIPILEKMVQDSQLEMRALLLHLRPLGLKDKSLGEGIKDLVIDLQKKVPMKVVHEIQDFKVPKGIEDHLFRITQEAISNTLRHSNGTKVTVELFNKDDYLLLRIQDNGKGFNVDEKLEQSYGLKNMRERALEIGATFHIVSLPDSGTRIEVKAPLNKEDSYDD

[4] = system: vancomycin intermediate resistant Staphylococcus aureus strain, VISA 2283; details: cited from earlier work
[5] = system: vanA containing VRSA strain VRS1; details: cited from earlier work
[6] = system: hetero VISA isolate, hVISA 2275; details: cited from earlier work
[7] = system: vanA containing VRSA strain VRS2; details: cited from earlier work
[8] = system: test strain 923 pPvra-lux (USA300 MRSA); experiment: Primary screen, relative growth in presence of oxacillin; details: compound 10 μM with oxacillin 2 μg/mL, absorbance 24 h, <0.50 = dead cells = hit
[9] = system: vraSR promoter (Pvra-lux reporter in strain 923); experiment: Primary screen, relative luminescence (vraSR expression)

PurC (unrelated protein, control), sequence (Q81ZH5 whole entry, looked up): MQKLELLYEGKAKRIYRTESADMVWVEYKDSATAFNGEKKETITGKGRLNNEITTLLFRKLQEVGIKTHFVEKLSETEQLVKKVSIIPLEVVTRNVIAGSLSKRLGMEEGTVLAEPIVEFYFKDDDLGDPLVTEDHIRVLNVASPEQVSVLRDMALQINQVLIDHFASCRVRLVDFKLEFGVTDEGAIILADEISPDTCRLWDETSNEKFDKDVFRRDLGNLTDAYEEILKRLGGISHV

| Compound | Kd [1] | Kd [2] | Kd [3] | binding to VraS-C [3] | RUmax VraS [3] | other results |
| --- | --- | --- | --- | --- | --- | --- |
| Cc1ccc(C)c(-c2nnc(NC(=O)c3nc4ccccc4s3)o2)c1 [F2518-0327] | > 100 µM | 15.4 ± 6.4 µM | > 100 µM | – | – | RUmax VraR [2]: 46.5 ± 2.9; binding to VraR ([2]; SPR): bound |
| O=C(Nc1nnc(-c2ccccc2Cl)o1)c1nc2ccccc2s1 [F1374-0033] | > 100 µM | > 100 µM | 19.6 ± 4.4 µM | bound | 64.3 ± 5.4 | – |
| O=C(Nc1nnc(-c2ccc(F)cc2)o1)c1cccc(Br)c1 [F1374-0119] | > 100 µM | > 100 µM | > 100 µM | – | – | – |
| CCN(CC)CCOc1ccc(C(=C(Cl)c2ccccc2)c2ccccc2)cc1 [Clo, Clomiphene] | – | – | – | – | – | MIC (in combination) Clo+, Pyr+, Gos+ ([4]; MIC of the compound in combination with the indicated Van concentration, VISA 2283): 3 µg/mL; FICi V + compound ([4]; VISA 2283): 0.75; Synergy category ([4]; VISA 2283): partial (partially potentiated vancomycin (FIC i>0.5 and <1.0)); potentiation of vancomycin ([4]; VISA): partially potentiated; MIC compound (Clo, Pyr, Gos) ([4]; compound alone, VISA 2283): 12 µg/mL (≈ 29.6 µM); Van FIC ([4]; in combination with compound, VISA 2283): 0.5; Clo FIC, Pyr FIC, Gos FIC ([4]; in combination with vancomycin, VISA 2283): 0.25; MIC (in combination) Van+ ([4]; vancomycin MIC when used in combination with compound, VISA 2283): 4 µg/mL; FICi V + compound [5]: 0.75; Synergy category [5]: partial (partially potentiated vancomycin (FIC i>0.5 and <1.0)); potentiation of vancomycin [5]: partially potentiated; MIC compound (Clo, Pyr, Gos) ([5]; compound alone): 12 µg/mL (≈ 29.6 µM); MIC compound (Clo, Pyr, Gos) ([6]; compound alone, hVISA 2275): 12 µg/mL (≈ 29.6 µM); Synergy category ([6]; hVISA 2275): partial (partially potentiated vancomycin (FIC i>0.5 and <1.0)); potentiation of vancomycin ([6]; hVISA): partially potentiated; potentiation of vancomycin [7]: fully potentiated; MIC compound (Clo, Pyr, Gos) ([7]; compound alone): 12 µg/mL (≈ 29.6 µM) |
| O=C(Nc1nnc(-c2ccc(Br)cc2)o1)c1ccc(Cl)s1 [F2518-0474] | > 100 µM | 22.2 ± 5.4 µM | 79.5 ± 34.6 µM | bound | 52.9 ± 12.8 | RG avg (relative growth) [8]: 0.01; RUmax VraR [2]: 27.5 ± 2.4; RL avg (relative luminescence) [9]: −0.01 |
| O=C(Nc1nnc(-c2ccc3c(c2)CCCC3)o1)c1cccc(C(F)(F)F)c1 [F0608-0575] | > 100 µM | > 100 µM | > 100 µM | – | – | – |
| O=C(Nc1nnc(-c2ccccc2Cl)o1)c1cccc(C(F)(F)F)c1 [F1374-0037] | > 100 µM | > 100 µM | 25.8 ± 4.8 µM | bound | 45.1 ± 3.2 | RG avg (relative growth) [8]: 0.02; RL avg (relative luminescence) [9]: 0.35 |
| Cc1ccc(C)c(-c2nnc(NC(=O)c3ccccc3F)o2)c1 [F2518-0382] | > 100 µM | > 100 µM | > 100 µM | – | – | – |
| O=C(Nc1nnc(-c2ccc3c(c2)CCCC3)o1)c1nc2ccccc2s1 [F0608-0570] | > 100 µM | > 100 µM | > 100 µM | – | – | – |
